These results are taken from patent publication US10100077B2, “6-aryl-9-glycosylpurines and use thereof” (UNIVERZITA PALACKEHO V OLOMOUCI, priority 2014, dated 2018).

The subject of data set [1] is skin fibroblasts BJ and keratinocytes HaCaT. Kind of data set: MTT in vitro cytotoxicity test for skin cells. As to conditions: for IC50: MTT, 72 hour treatment, BJ and HaCaT, maximal concentration 50 microM. The class given is cell-based. How it is done: MTT assay is a standard test of toxicity based on photometric measurement of the ability of metabolically active cells to reduce MTT (3-(4,5-dimethylthiazol-2-yl)-2,5-diphenyltetrazolium bromide). Using the assay, the effects of 72 hour treatments with several concentrations of the compounds (sixfold dilution, maximal concentration=50 microM) on viability of skin fibroblasts BJ and keratinocytes HaCaT were evaluated. About 5,000 cells were seeded per well of a 96-well plate 24 hours before the treatment. DMSO vehiculum was used as a negative control. After 72 hour treatment, new medium with MTT (Sigma, M2128) was added to a final concentration of 0.5 mg/ml. After 3 hours, medium was removed and resulting formazan in the cells was dissolved in DMSO. The absorbance was measured at 570 nm (640 nm reference wavelength). The IC50 values were calculated from the dose-response curves. 6-Benzylaminopurine riboside and 6-furfurylaminopurine riboside were used as positive controls they were toxic in the MTT test.

For data set [2] the test system is unchanged. Kind of data set: SRB in vitro toxicity test. The class given is cell-based. As to conditions: 72 hour treatment, maximal concentration 50 microM. How it is done: SRB (sulforhodamine B) assay is a standard toxicity test based on a photometric measurement of the cellular protein content after the staining with sulphorhodamine B. Using the assay, the effects of 72 hour treatments with several concentrations of the compounds (sixfold dilution, maximal concentration=50 microM) on viability of skin fibroblasts BJ and keratinocytes HaCaT were evaluated. About 5,000 cells were seeded per well of a 96-well plate 24 hours before the treatment. DMSO vehiculum was used as a negative non-toxic control. 6-benzylaminopurine riboside a 6-furfurylaminopurin riboside were used as positive toxic controls. After three days the medium was removed and the cells fixed with 10% (wt/vol) trichloroacetic acid. After the extensive washing in distilled water, 0.4% (wt/vol) solution of SRB in acetic acid was added and the fixed cells were stained for 30 minutes. The unbound stain was washed away by distilled water and the bound SRB was solubilized in unbuffered 10 mM Tris base. Absorbance was measured at 564 nm. IC50 values were calculated from dose-response curves.

For data set [3], the system named is human erythromleukemia (K562). Nature of the data set: Calcein AM cytotoxicity assay, K562. The class given is cell-based. The settings on record: 72 hrs. The text has this: (§1) One of the parameters used as the base for cytotoxic analysis is metabolic activity of viable cells, such as microtiter assay, which uses the Calcein AM, is now widely used to quantitate cell proliferation and cytotoxicity. The quantity of reduced Calcein AM corresponds to the number of viable cells in culture. The cell lines of breast cancer (MCF-7), mousse fibroblasts (NIH3T3), human erythromleukemia (K562) were used for routine screening of cytotoxicity of the compounds. The cells were maintened in Nunc/Corning 80 cm^2 plastic bottles and grown in media for cell culture (DMEM containing 5 g/l of glucose, 2 mM of glutamin, 100 U/ml of penicilin, […] of streptomycin, 10% of fetal bovine serum and sodium hydrogencarbonate). Cell suspensions were diluted according to cell types and according to expected final cell density (10^4 of cells per well according to characteristics of cell growth), pipetted 80 μl of cell suspension on 96-well microtiter plates. Innoculates were stabilized by 24 hrs preincubation at 37° C. in CO2. Particular concentrations of tested compounds were added in time zero as 20 μl aliquotto wells of microtiter plates. Usually, the compounds were diluted into six concentrations in four-fold dilution series. In routine testing, the highest well concentration was 166.7 μM, of change dependent on the substance. All drug concentrations were examined in duplicates. The incubation of cells with tested derivatives lasted 72 hrs at 37° C., 100% humidity and in the atmosphere of CO2. At the end of the incubation period, the cells were tested and analysed according to the addition of Calcein AM (Molecular probes) solution and the incubation lasted for next 1 hour. Fluorescence (FD) was measured using Labsystem FIA reader Fluorskan Ascent (Microsystems). The survival of tumor cells (The tumor cell survival-TCS) was counted according to equation: […]=(FDwell with derivative/FDcontrol well)×100%. The value of GI50, that is equal to the concentration of compound at which 50% of tumour cells are terminated. To evaluate the antitumor activity was tested toxicity of new derivatives on panel of cell lines of different histogenetic and species origin (Tab. 7, G150 concentration given in μM). […] Effective derivatives killed tumor cells in concentrations close to 0.1 to 50. None of the newly prepared compounds only reached the value.

The test system of data set [4] is mousse fibroblasts (NIH3T3). Nature of the data set: Calcein AM cytotoxicity assay, NIH3T3. The class given is cell-based, mouse. The settings on record: 72 hrs.
Source text: as §1

For data set [5], the system named is breast cancer (MCF-7). Kind of data set: Calcein AM cytotoxicity assay, MCF-7. The class given is cell-based. As to conditions: 72 hrs.
Source text: as §1

Data set [6] deals with detached leaf segments of Triticum aestivum cv. Hereward. Nature of the data set: Senescence bioassay on wheat leaf segments (chlorophyll retention). As to conditions: for maximum effective concentration: 96 h in the dark at 25° C.; for activity (%) [10^−4 mol · l^−1 BAP = 100%]: chlorophyll retention at maximum effective concentration, 96 h dark. How it is done:
Seeds of winter wheat, Triticum aestivum cv. Hereward, were washed under running water for 24 hours and then sown on vermiculite soaked with Knop's solution. They were placed in the growth chamber at 25° C. with a 16/8 h light period at 50 μmol·m^−2·s^−1. After 7 days, the first leaf was fully developed and the second leaf had started to grow. A tip section of the first leaf, approximately 35 mm long, was removed from 5 seedlings and trimmed slightly to a combined weight of 100 mg. The basal ends of the five leaf tips were placed in the wells of a microtiter polystyrene plate containing 150 μL, of the tested derivative solution each. The entire plate was inserted into a plastic box lined with paper tissues soaked in distilled water to prevent leaf sections from drying out. After 96 h incubation in the dark at 25° C., the leaves were removed and chlorophyll extracted by heating at 80° C. for 10 min in 5 mL of 80% ethanol (v/v). The sample volume was then restored to 5 mL by the addition of 80% ethanol (v/v). The absorbance of the extract was recorded at 665 nm. In addition, chlorophyll extracts from fresh leaves and leaf tips incubated in deionised water were measured. The results are means of five replicates and the entire test was repeated twice. […] The compounds to be tested were dissolved in dimethylsulfoxide (DMSO) and the solution brought up to 10^−3M with distilled water. This stock solution was further diluted with the respective media used for the biotest to a concentration ranging from 10^−8M to 10^−4M. […] The activity obtained for 10^−4 M of BAP was postulated as 100%.

A word on the IC50: it is the concentration at which inhibition is half-maximal. Low readings indicate higher potency, high ones lower potency. Take `OC[C@H]1O[C@@H](n2cnc3c(NCc4ccco4)ncnc32)C[C@@H]1O` [6-(furfurylamino)-9-β-D-2′-deoxyribofuranosylpurine]: the IC50 in data set [1] and in data set [2] was over 50 µM each time.

Turning to `OC[C@H]1O[C@@H](n2cnc3c(NCc4ccccc4O)ncnc32)C[C@@H]1O` [6-(2-hydroxybenzylamino)-9-β-D-2′-deoxyribofuranosylpurine], the IC50 in data set [1] and in data set [2] was over 50 µM in each case.

By GI50 is commonly meant the concentration that inhibits growth by half. Take `OC[C@H]1O[C@@H](n2cnc3c(NCc4ccccc4F)ncnc32)[C@@H](O)[C@@H]1O` [2-fluorobenzylamino-9-β-D-arabinofuranosylpurine]: the GI50 was over 100 µM in data set [3], over 100 µM in data set [4] and 87 µM in data set [5].

Regarding `OC[C@H]1O[C@@H](n2cnc3c(NCc4ccc(O)cc4)ncnc32)[C@@H](O)[C@@H]1O` [4-hydroxybenzylamino-9-β-D-arabinofuranosylpurine], the GI50 in data set [3] is over 100 µM; in data set [4] it was 87 µM; in data set [5], over 100 µM.

Turning to `Cc1ccc(CNc2ncnc3c2ncn3[C@@H]2O[C@H](CO)[C@@H](O)[C@@H]2O)cc1` [4-methylbenzylamino-9-β-D-arabinofuranosylpurine], the GI50 is over 100 µM in data set [3], over 100 µM in data set [4] and 95 µM in data set [5].

In the case of `COc1ccc(CNc2ncnc3c2ncn3[C@@H]2O[C@H](CO)[C@@H](O)[C@H]2O)cc1OC` [6-(3,4-dimethoxybenzylamino)-9-riboside, reference compound], in data set [6], the maximum effective concentration is listed as 10^−4 mol · l^−1 and the “activity (%) [10^−4 mol · l^−1 BAP = 100%]” value (“activity (%)” for short) is recorded as 47 ± 6%.

As for `OC[C@H]1O[C@@H](n2cnc3c(NCc4cccc(I)c4)ncnc32)[C@H](O)[C@@H]1O` [6-(3-iodobenzylamino)-9-riboside, reference compound], in data set [6], the maximum effective concentration was 10^−4 mol · l^−1 and the “activity (%)” value is recorded as 58 ± 19%.

For the compound `OC[C@H]1O[C@@H](n2cnc3c(NCc4ccccc4Br)ncnc32)[C@@H](O)[C@@H]1O` [6-(2-bromobenzylamino)-9-β-D-arabinofuranosylpurine], in data set [6], the “activity (%)” value was found to be 186 ± 19%.

As for `OC[C@H]1O[C@@H](n2cnc3c(NCc4cccc(Cl)c4)ncnc32)C[C@@H]1O` [3-chlorobenzylamino-9-β-D-2′-deoxyribosylpurine], the GI50 in data set [3], in data set [4] and in data set [5] was over 100 µM in each case.

Regarding `OC[C@H]1O[C@@H](n2cnc3c(NCc4cccc(I)c4)ncnc32)[C@@H](O)[C@@H]1O` [6-(3-iodobenzylamino)-9-β-D-arabinofuranosylpurine], the IC50 in data set [1] (Homo sapiens) and in data set [2] (Homo sapiens) was over 50 µM each time. The “activity (%)” value in data set [6] was 198 ± 4%.

Turning to `OC[C@H]1OC(n2cnc3c(NCc4ccco4)ncnc32)[C@H](O)[C@@H]1O` (stereo partly shown) [6-furfurylamino-9-ribosylpurine, reference compound], the IC50 in data set [1] (Homo sapiens) and in data set [2] (Homo sapiens) was at most 3 µM throughout. In addition, in data set [1] (positive controls), the “toxicity in the MTT test” value is “toxic”.

With `OC[C@H]1O[C@@H](n2cnc3c(NCc4ccccc4Cl)ncnc32)[C@@H](O)[C@@H]1O` [6-(2-chlorobenzylamino)-9-β-D-arabinofuranosylpurine], the IC50 in data set [1] (Homo sapiens) and in data set [2] (Homo sapiens) was over 50 µM throughout.

On to `OC[C@H]1O[C@@H](n2cnc3c(NCc4cccc(Br)c4)ncnc32)[C@H](O)[C@@H]1O` [6-(3-bromobenzylamino)-9-riboside, reference compound], for which, in data set [6], the maximum effective concentration is on record as 10^−4 mol · l^−1 and the “activity (%)” value came to 89 ± 10%.

Turning to `OC[C@H]1O[C@@H](n2cnc3c(NCc4cccc(O)c4)ncnc32)[C@@H](O)[C@@H]1O` [6-(3-hydroxybenzylamino)-9-β-D-arabinofuranosylpurine], the IC50 in data set [1] (Homo sapiens) and in data set [2] (Homo sapiens) was over 50 µM in each case.

Regarding `COc1ccc(CNc2ncnc3c2ncn3[C@@H]2O[C@H](CO)[C@@H](O)[C@@H]2O)c(OC)c1OC` [6-(2,3,4-trimethoxybenzylamino)-9-β-D-arabinofuranosylpurine], the IC50 in data set [1] (Homo sapiens) is 48 µM; in data set [2] (Homo sapiens) it was over 50 µM.

Take `COc1ccc(CNc2ncnc3c2ncn3[C@@H]2O[C@H](CO)[C@@H](O)[C@@H]2O)cc1OC` [6-(3,4-dimethoxybenzylamino)-9-β-D-arabinofuranosylpurine]: the “activity (%)” value in data set [6] is recorded as 147 ± 6%.

As for `OC[C@H]1O[C@@H](n2cnc3c(NCc4ccc(Br)cc4)ncnc32)[C@@H](O)[C@@H]1O` [6-(4-bromobenzylamino)-9-β-D-arabinofuranosylpurine], the “activity (%)” value in data set [6] is 176 ± 11%.

In the case of `OC[C@H]1O[C@@H](n2cnc3c(NCc4ccc(Cl)cc4Cl)ncnc32)[C@H](O)[C@@H]1O` [6-(2,4-dichlorbenzylamino)-9-riboside, reference compound], in data set [6], the maximum effective concentration is recorded as 10^−4 mol · l^−1 and the “activity (%)” value amounted to 5 ± 1%.

Take `OC[C@H]1O[C@@H](n2cnc3c(NCc4cccc(Br)c4)ncnc32)[C@@H](O)[C@@H]1O` [6-(3-bromobenzylamino)-9-β-D-arabinofuranosylpurine]: in data set [6], the “activity (%)” value is reported as 198 ± 10%.

In the case of `OC[C@H]1O[C@@H](n2cnc3c(NCc4cccc(Cl)c4)ncnc32)[C@H](O)[C@@H]1O` [6-(3-chlorobenzylamino)-9-riboside, reference compound], in data set [6], the maximum effective concentration is listed as 10^−4 mol · l^−1 and the “activity (%)” value is listed as 72 ± 8%.

Regarding `Nc1cccc(CNc2ncnc3c2ncn3[C@@H]2O[C@H](CO)[C@@H](O)[C@@H]2O)c1` [6-(3-aminobenzylamino)-9-β-D-arabinofuranosylpurine], the IC50 in data set [1] (Homo sapiens) and in data set [2] (Homo sapiens) was over 50 µM throughout.

For the compound `COc1cccc(CNc2ncnc3c2ncn3[C@@H]2O[C@H](CO)[C@@H](O)[C@@H]2O)c1OC` [6-(2,3-dimethoxybenzylamino)-9-β-D-arabinofuranosylpurine], the IC50 in data set [1] (Homo sapiens) was 49 µM; in data set [2] (Homo sapiens), over 50 µM.
